{"source": "patent US20190248834A1", "about": "“ENDOMORPHIN-2, TETRAPEPTIDE DERIVATIVES THEREOF, AND USES THEREOF” (priority 2016, published 2019)", "format_in_all_cases": "in vivo, human", "key": {"[1]": {"system": "chronic right shoulder pain", "assay": "Example 7: analgesic effect on shoulder pain, topical", "excerpt": "A subject had chronic right shoulder pain. The subject was unable to lift their arm above chest level. The subject topically applied an anhydrous solution composition containing 0.5% (w/v) N-Ac-Tyr-Pro-Phe-Phe-NH2(SEQ ID NO: 23) in EP73, formulated as described in the Example 2, on their right shoulder at night. The next morning, 70% relief of pain was observed. The subject re-applied the composition at bedtime. The following morning, 85-90% relief was observed and they were able to lift their arm above their head with only minor discomfort."}, "[2]": {"system": "sub-acute pain of left wrist", "assay": "Example 10: analgesic effect on wrist pain, topical", "description": "A subject had sub-acute pain of their left wrist, which they twisted while lifting a child.\nThe subject topically applied an anhydrous composition containing 0.7% (w/v) N-Ac-Tyr-Pro-Phe-Phe-NH2 (SEQ ID NO: 23) in EP73, formulated as described in Example 2, before bedtime. The next morning, about 70% relief of pain was observed. The subject topically re-applied the same composition under plastic film wrap for 2 hours, and the wrist pain was completely eradicated. The subject was free of any wrist pain and the improvement was 100% as judged by clinical evaluation."}, "[3]": {"system": "ordinary type of headache", "assay": "Example 11: analgesic effect on headache, topical", "conditions": "1% (w/v) in EP73, topical", "excerpt": "A subject, developed an ordinary type of headache in the early afternoon. Such headaches usually would persist for several hours, being relieved incompletely by treatment with oral drugs, such as ibuprofen and/or acetaminophen. In this instance, they topically applied an anhydrous composition containing 1% (w/v) N-Ac-Tyr-Pro-Phe-Phe-NH2(SEQ ID NO: 23) in EP73 to the frontal and temporal areas."}, "[4]": {"system": "psoriatic arthritis pain, fingers and wrists", "assay": "Example 48: comparative analgesic efficacy, psoriatic arthritis pain of fingers and wrists, topical", "conditions": "1% (w/v) in WEP442, topical", "excerpt": "[…] Treatment of the subject over the years included methotrexate and other antimetabolites, and in recent years drugs known as biologic medications. While these agents have provided intervals of relief, none has provided a lasting benefit. Over the past decade, painful arthritis developed in both wrists and in numerous joints of the fingers. Four related tetrapeptide derivatives, 1% (w/v) solution compositions in vehicle WEP442, one at a time, were topically applied to the fingers and wrists of both hands. […] Efficacy was rated by the subject as 4+. • (B) N-Ac-Tyr-Pro-Phe-Phe-NHNH2 (SEQ ID NO: 31) provided slow relief of pain, i.e. within about 10 minutes. […] Analgesic efficacy was judged by the subject to be 0 to 1+."}, "[5]": {"system": "knee pain, lateral meniscus", "assay": "Example 58: analgesic effect on knee pain due to injured lateral meniscus, topical", "conditions": "1% (w/v) in WEP442, topical", "excerpt": "A subject had knee pain at the site of the lateral meniscus of the right knee, secondary to repeated trauma in the course of their work as a house builder. They evaluated two (2) tetrapeptide derivatives for efficacy in relieving this pain, including N-Ac-Tyr-Pro-Phe-Phe-NH2 (SEQ ID NO: 23) and N-Pg-Tyr-Pro-Phe-Phe-NH2 (SEQ ID NO: 44), both as a 1% (w/v) solution composition in WEP442. One solution composition was topically applied during the course of a day; and the other solution composition was topically applied during the course of the following day. The evaluation continued over a period of 8 days in this schedule."}, "[6]": {"system": "severe osteoarthritis of both knees", "assay": "Example 17: analgesic effect on osteoarthritic knees, sublingual powder", "conditions": "powder 50 mg under the tongue", "description": "A subject had severe osteoarthritis of both knees with pain, inflammation and edema for four years. The subject underwent prior therapy, including intra-articular injections of corticosteroids and hyaluronic acid as well as celecoxib (Celebrex), administered orally (200 mg) twice daily. Such therapy provided only mild transitory relief of knee pain and edema, and edema of the lower legs.\nThe subject administered N-Pg-Tyr-Pro-Phe-Phe-NH2 (SEQ ID NO: 44) powder (50 mg) under the tongue (sublingually), which dissolved in saliva and absorbed slowly for about 30 minutes. […] The analgesic effect lasted for about 2 hours. The analgesic effect was judged to be about 4+ by clinical evaluation.\nUnder the same conditions, N-Pa-Tyr-Pro-Phe-Phe-NH2 (SEQ ID NO: 64) powder provided an analgesic effect of about 3+ as judged by clinical evaluation. Also under the same conditions, N-Ac-Tyr-Pro-Phe-Phe-NH2 (SEQ ID NO: 23) powder provided an analgesic effect of about 3+ as judged by clinical evaluation. Repeated application of the tetrapeptide derivatives provided 4+ efficacy as judged by clinical evaluation."}, "[7]": {"system": "headache", "assay": "Example 52: analgesic effect on headache", "conditions": "1% (w/v) in WEP442, topical", "excerpt": "At 5:30 p.m., the headache pain was becoming more intense, at which time they topically applied a composition containing 1% (w/v) of N-Pg-Tyr-Pro-Phe-Phe-NH2 (SEQ ID NO: 44) in WEP442 to the entire forehead and temporal areas. […] There was no recurrence of symptoms over the next 3 days of follow-up time."}, "[8]": {"system": "knee pain, bulging meniscus", "assay": "Example 65: analgesic effect on pain from bulging sub-patellar meniscus, topical", "conditions": "0.6% (w/v) in WEP442, topical", "excerpt": "A landscape worker slipped on the grass and twisted their right knee, which became too painful for them to walk on without physical support. […] Surgical corrective procedures were scheduled for 2 weeks later. In the meantime, topical applications of the above solution as needed allowed them to move about with no discomfort."}, "[9]": {"system": "painful arthritis of hands", "assay": "Example 76: analgesic effect on arthritis pain of the hands, topical", "conditions": "0.5% (w/v) in WEP442, topical; before about 20 minutes", "description": "A subject, and a veteran guitar player, was able to play their instrument in previous years for about an hour in group session performances. […] The subject reported that topical application to their hands of a composition containing 0.5% (w/v) of N-Pg-Tyr-Pro-Phe-Phe-NH2 (SEQ ID NO: 44) in WEP442 enabled them to play their guitar for 1 hour pain free. They also noted that the quality of their performance had improved."}}, "note": "Non-standard residues stand in square brackets, D forms with d. pGlu = O=C1CC[C@@H](C(=O)O)N1"}
{"compound": "CC(=O)N[C@@H](Cc1ccc(O)cc1)C(=O)N1CCC[C@H]1C(=O)N[C@@H](Cc1ccccc1)C(=O)N[C@@H](Cc1ccccc1)C(N)=O", "note": "[N-Ac-Tyr-Pro-Phe-Phe-NH2]", "values": [{"measurement": "relief of pain", "setting": "[1]; 0.5% (w/v) in EP73, re-applied at bedtime, following morning", "result": "85-90%"}, {"measurement": "relief of pain", "setting": "[1]; 0.5% (w/v) in EP73, topical at night, next morning", "result": 70, "unit": "%"}, {"measurement": "improvement by clinical evaluation", "setting": "[2]; 0.7% (w/v) in EP73, re-applied under plastic film wrap for 2 hours", "result": 100, "unit": "%"}, {"measurement": "relief of pain", "setting": "[2]; 0.7% (w/v) in EP73, topical before bedtime, next morning", "result": "about 70%"}, {"measurement": "duration of headache alleviation", "setting": "[3]", "result": 18, "unit": "h"}, {"measurement": "pain relief", "setting": "[3]", "result": "headache pain disappeared completely"}, {"measurement": "time to pain relief", "setting": "[3]", "result": "Within minutes"}, {"measurement": "pain relief", "setting": "[4]", "result": "rapid complete relief of pain"}, {"measurement": "duration of pain relief", "setting": "[5]", "result": "about 4 hours"}, {"measurement": "pain relief", "setting": "[5]", "result": "complete relief of pain"}]}
{"compound": "N-Pg-Tyr-Pro-Phe-Phe-NH2 ([pGlu]YPFF-NH2; SMILES NC(=O)[C@H](Cc1ccccc1)NC(=O)[C@H](Cc1ccccc1)NC(=O)[C@@H]1CCCN1C(=O)[C@H](Cc1ccc(O)cc1)NC(=O)[C@@H]1CCC(=O)N1)", "values": [{"measurement": "analgesic effect by clinical evaluation", "setting": "[6]", "result": "4+ (4+ (90-100%): complete relief or eradication of pain for more than 4 hours)"}, {"measurement": "duration of analgesic effect", "setting": "[6]", "result": "about 2 hours"}, {"measurement": "pain relief", "setting": "[6]", "result": "the pain disappeared"}, {"measurement": "time to pain relief", "setting": "[6]", "result": "≤ 20", "unit": "min"}, {"measurement": "pain relief", "setting": "[4]", "result": "rapid relief of pain"}, {"measurement": "pain relief", "setting": "[7]", "result": "all pain, and heavy feelings were completely gone"}, {"measurement": "time to pain relief", "setting": "[7]", "result": "≤ 30", "unit": "s"}, {"measurement": "time without recurrence of symptoms (follow-up)", "setting": "[7]", "result": "≥ 3", "unit": "days"}, {"measurement": "duration of pain relief", "setting": "[5]", "result": "about 4 hours"}, {"measurement": "pain relief", "setting": "[5]", "result": "complete relief of pain"}, {"measurement": "duration of pain relief", "setting": "[8]", "result": "lasted throughout the working day"}, {"measurement": "pain relief", "setting": "[8]", "result": "complete relief of pain"}, {"measurement": "time to pain relief", "setting": "[8]", "result": "3 to 4", "unit": "min"}, {"measurement": "pain free guitar playing time", "setting": "[9]", "result": 1, "unit": "h"}]}
